Results: patent US20140087944A1, “COMPOSITIONS AND METHODS FOR ENHANCING PLANT GROWTH” (NOVOZYMES BIOAG A/S, priority 2012, published 2014)

What was measured:
Type in all cases: in vivo
corn seedling = experiment: Corn seedling root growth after seed treatment, Petri plate germination, WinRhizo root scanner (Examples 1 and 2)
Method: An experiment was performed to determine the effect of gluconolactone on corn seedling root growth parameters. Unsterilized corn seeds (Peterson Hybrid corn 98L90GTCBLL pre-treated with fungicide Acceleron) were treated with water (control) and gluconolactone solutions (1 and 10 mg/L distilled water). In a clear plastic bag (25 cm×25 cm), 100 gram seeds were treated with 500 μl water (for control). Gluconolactone treatments of 1 and 10 mg/L included 250 μl water+250 μl gluconolactone solution with vigorous shaking. Four hours after treatment, 10 seeds were plated in 150 mm×15 mm polystyrene Petri plates (Fisherband) on 5⅜″ germination paper circle (Anchor Paper Co., Saint Paul, Mn) and moistened with 12 ml distilled water. Four Petri plates were prepared per treatment as 4 replicates. Petri plates were then placed in the dark in under-counter cabinets in the lab at 24° C. for 7 days. After 7 days, seedlings were removed from the cabinets, exposed to light, and their main roots severed and measured for various root parameters with WinRhizo root scanner (Regent Instruments Inc., WinRhizo Pro 2007). For all statistical analysis, student t-test was applied using JMPv.9 statistical software.
An experiment was designed to evaluate if any gluconolactone concentration between 1.0-10 mg/L and below 1.0 mg/L has an optimum effect on influencing seedling root growth. Example 2 was conducted according to the protocols of Example 1. Accordingly, gluconolactone concentrations of 5.0 mg/L, 1.0 mg/L, and 0.5 mg/L, were evaluated.

corn seedlings = experiment: Growth of seedlings in water-agar medium in test tube (Example 3), corn
Method: (§1) The effect of gluconolactone on growth of seedlings of various crops was examined. Corn, green lentil and yellow pea seeds (100 g) were treated with 1.0 mg/L gluconolactone and control seeds were treated with distilled water according to the protocols of Example 1. After treatments, seeds were allowed to dry overnight. One day after treatment, seeds were placed in 25×150 mm glass test tubes containing 40 ml of 5% water-agar solidified medium. Seeds were placed on the surface of medium in each test tube. Test tubes were then placed in a rack and kept in the lab under diffuse light. As the treated seeds were not sterilized, sterilization of the agar medium was not maintained and the test tubes were kept uncapped. Because of the agar medium being without any sugar, the occurrence of contamination was minimal for up to 10 days. The number of seeds per treatment was 10.

green lentil seedlings = experiment: Growth of seedlings in water-agar medium in test tube (Example 3), lentil
Method: as §1

yellow pea seedlings = experiment: Growth of seedlings in water-agar medium in test tube (Example 3), pea
Method: as §1

soybean [1] = experiment: Soybean pod yield in greenhouse, gluconolactone with isoflavonoids (Example 8); details: for yield increase over Cue®: gluconolactone added with Cue®; for soybean pod yield, Fresh Weight: gluconolactone 1 mg/L, pods harvested after 6 weeks
Method: Cue® is a genistein/daidzein isoflavonoid product available from Novozymes Biologicals, Inc. Cue® is used as a soybean seed treatment and the effect of gluconolactone in combination with flavonoids was evaluated to see if soybean production could be enhanced. Gluconolactone was prepared with Cue®. Daidzein, another isoflavonoid, was similarly prepared with gluconolactone with daidzein having the same isoflavonoid concentration as Cue®.
About 100 g soybean seeds were treated with 1 mg/L treatment solutions of gluconolactone and 200 μl of CruiserMaxx® Beans (Syngenta) fungicide+170 μl distilled water+30 μl Cue® or daidzein. For control, a total of 200 μl water was used with 200 μl CruiserMaxx® Bean fungicide. One day after seed treatments, seeds were planted in greenhouse in 1 gallon plastic pots containing soilless mix Fafard 3B. There were 3 plants/pot and 4 pots/treatment. Soybean plants were occasionally fertilized with 20-15-20 NPK fertilizer. Pods were harvested after 6 weeks. Average pod fresh weights were analyzed by student-t test using JUMP statistical software.

soybean [2] = experiment: Performance of rhizobial inoculants for soybean seeds, pod yield (Example 10)
Method: The effect of gluconolactone on the performance of rhizobial inoculants for soybean seeds was evaluated to see if soybean production could be enhanced. 1 mg/L of gluconolactone was added to rhizobial inoculants products Cell-Tech® and Optimize-400® (both from Novozymes Biologicals Inc.). Seed treatments were performed following the instruction cited in the product labels. The total liquid dose going onto soybean seeds was maintained the same when gluconolactone was added. Control seeds were treated with water. About 100 g seed was treated in a clear plastic bag (25 cm×25 cm) with treatment solutions. Seeds were planted 2 hours after treatment in […] containing Fafard soilless mix in greenhouse. 3 plants were allowed to grow per pot and there were 5 pots per treatment. Pods were harvested 6 weeks after planting.

lentil seedlings = experiment: Stress tolerance of lentil seedlings at 8° C., root growth parameters (Example 11); details: seven days after plating, 1.0 mg/L gluconolactone, 100 mg/L glutathione, 100 mg/L PADG
Method: The effect of antioxidants on stress tolerance by lentil seedlings at 8° C. was evaluated. Lentil seeds treated with the treatment solutions at 5 ml/kg of seed. […] Treated seeds were plated in large Petri plates on germination paper moistened with deionized water. Plates were incubated at 8° C. in a walk in cold room. Seven days after plating, seedling roots were measured for various growth parameters.

[3] = Example 1, GL 1 mg/L seed treatment, main root, 7 days
[4] = Example 1, GL 1 mg/L seed treatment, main root, 7 days, listed as GL
[5] = Example 1, GL 10 mg/L seed treatment, main root, 7 days
[6] = Example 1, GL 10 mg/L seed treatment, main root, 7 days, listed as GL
[7] = Example 2, GL 0.5 mg/L seed treatment
[8] = Example 2, GL 1.0 mg/L seed treatment
[9] = Example 2, GL 5.0 mg/L seed treatment
[10] = gluconolactone 1 mg/L seed treatment, harvested 10 days after planting
[11] = gluconolactone 1 mg/L, non-significantly

## O=C1O[C@H](CO)[C@@H](O)[C@H](O)[C@H]1O [Gluconolactone, gluconolactone]
Corn seedling; [3]
  Diameter: 0.940a mm
  Surface area: significantly higher than control
  Volume: significantly higher than control
Corn seedling; Example 1, GL 1 mg/L seed treatment, main root, 7 days in dark at 24° C.
  Length: significantly higher than control
Corn seedling; Example 1, GL 1 mg/L seed treatment, main root, 7 days in dark at 24° C., listed as GL
  Length: 7.108a cm
Corn seedling; [4]
  Surface area: 2.128a cm^2
  Volume: 0.051a cm^3
Corn seedling; [5]
  Diameter: did not show any difference
  Length: did not show any difference
  Surface area: did not show any difference
  Volume: did not show any difference
Corn seedling; [6]
  Length: 6.282ab cm
  Surface area: 1.748ab cm^2
  Volume: 0.039ab cm^3
Corn seedling; [7]
  Diam: 1.190a mm
  Length: 6.778ab cm
  Root Volume: 0.076a cm3
Corn seedling; [8]
  Diam: 1.116b mm
  Length: optimum dose
  Root Volume: 0.070ab cm3
Corn seedling; Example 2, GL 1.0 mg/L seed treatment, listed as GL
  Length: 7.048a cm
Corn seedling; [9]
  Diam: 1.149ab mm
  Length: least effective
  Root Volume: 0.063b cm3
Corn seedling; Example 2, GL 5.0 mg/L seed treatment, listed as GL
  Length: 6.054b cm
Corn seedlings; [10]
  Seedling dry weight: 0.606a g
Corn seedlings; [11]
  average plant dry biomass higher (than control): 6.3%
Green lentil seedlings; [10]
  Seedling dry weight: 0.083a* g
Green lentil seedlings; gluconolactone 1 mg/L, significantly
  average plant dry biomass higher (than control): 38.3%
Yellow pea seedlings; [10]
  Seedling dry weight: 0.483a g
Yellow pea seedlings; [11]
  average plant dry biomass higher (than control): 5.0%
Soybean [1]; 1st trial
  yield increase over Cue®: 6%
Soybean [1]; 2nd trial
  yield increase over Cue®: 9.7%
Soybean [1]; 3rd trial
  yield increase over Cue®: 0.6%
Soybean [1]; gluconolactone added with daidzein, in 2 out of 3 trials
  yield increase (over daidzein alone): approximately 2.5%
Soybean [2]; 1 mg/L gluconolactone added to Cell-Tech, over Cell-Tech alone
  % increase (dry pod yield): 3.36%
Soybean [2]; 1 mg/L gluconolactone added to Optimize-400, over Optimize-400 alone
  % increase (dry pod yield): 4.84%
Lentil seedlings
  No. of lateral roots: 2.935 ab
  Seedling Root Length: 2.895 a cm
  Surface area: 0.9457 a cm^2
  Volume: 0.02474 a cm^3
Lentil seedlings; listed as gluconolactone
  No. of lateral roots: significantly increased
  Seedling Root Length: significantly increased
  Surface area: significantly increased
  Volume: significantly increased

## O=c1c(-c2ccc(O)cc2)coc2cc(O)ccc12 [Daidzein, reference compound]
Soybean [1]; 1st trial
  soybean pod yield, Fresh Weight: 36.782 g
Soybean [1]; 2nd trial
  soybean pod yield, Fresh Weight: 36.4 g
Soybean [1]; 3rd trial
  soybean pod yield, Fresh Weight: 32.482 g
